Source: DBAASP
≈ marks a conversion by molar mass, not a printed value. Each block holds one compound with its values, some of them ahead of it.

Columns and labels:
Assay in all cases: ≥ marks a high value that may be exact or a test limit, other limits are often not marked, values filed in µg/mL are converted to µM
[1] = test system: Streptococcus mutans KCTC 3065
[2] = test system: Pseudomonas aeruginosa ATCC 27853
[3] = test system: Malassezia furfur KCTC 7744
[4] = test system: Enterococcus faecium ATCC 29212
[5] = test system: Trichosporon beigelii KCTC 7707
[6] = test system: Vibrio vulnificus ATCC 29307
[7] = test system: Escherichia coli O157:H7 ATCC 43895
[8] = test system: Candida albicans ATCC 90028
[9] = test system: Staphylococcus aureus ATCC 25923
[10] = test system: Serratia marcescens ATCC 14756
Candida krusei ATCC 6258 = test system: Candida krusei ATCC 6258
[11] = test system: Mannheimia haemolytica 82-25
[12] = test system: Enterococcus faecalis ATCC 29212
[13] = test system: Pseudomonas aeruginosa ATCC 27312
[14] = test system: Escherichia coli ATCC 12795
[15] = test system: Staphylococcus aureus ATCC 29213
[16] = test system: Klebsiella pneumoniae ATCC 10031
[17] = test system: Escherichia coli ATCC 25922
[18] = test system: Staphylococcus aureus ATCC 6538P
[19] = test system: Pseudomonas aeruginosa ATCC 10148
Streptococcus pyogenes = test system: Streptococcus pyogenes
Escherichia coli NDM = test system: Escherichia coli NDM
[20] = test system: Escherichia coli ATCC 9723H
[21] = test system: Staphylococcus epidermidis ATCC 1114
Staphylococcus aureus MR = test system: Staphylococcus aureus MR
[22] = test system: Leuconostoc mesenteroides ATCC 1059
[23] = test system: Bacillus cereus ATCC 1015
[24] = test system: Klebsiella pneumoniae ATCC BAA-1705
Escherichia coli W3110 = test system: Escherichia coli W3110
[25] = test system: Staphylococcus aureus ATCC 43300
[26] = test system: Klebsiella pneumoniae ATCC BAA-2146
[27] = test system: Streptococcus pneumoniae ATCC 700677
[28] = test system: Staphylococcus aureus VRSA10
[29] = test system: Pseudomonas aeruginosa FADDI-PA070
[30] = test system: Klebsiella pneumoniae ATCC 700603
[31] = test system: Staphylococcus aureus NRS 17
[32] = test system: Staphylococcus aureus VRSA1
[33] = test system: Staphylococcus aureus NRS 1
[34] = test system: Acinetobacter baumannii ATCC 19606
[35] = test system: Escherichia coli ATCC 35218
[36] = test system: Pseudomonas aeruginosa PAO1
Listeria monocytogenes = test system: Listeria monocytogenes
[37] = test system: Salmonella enterica subsp. enterica serovar Typhimurium ATCC 14028
[38] = test system: Staphylococcus aureus WKZ2
[39] = test system: Salmonella enterica subsp. enterica serovar Enteritidis 706 RIVM
[40] = test system: Pseudomonas aeruginosa RP73

MIC [1]: 12.7 µM (≈ 12.5 µg/mL)
MIC [2]: 12.7 µM (≈ 12.5 µg/mL)
MIC [3]: ≥ 50.9 µM
MIC [4]: 25.4 µM (≈ 25 µg/mL)
MIC [5]: 12.7 µM (≈ 12.5 µg/mL)
MIC [7]: 12.7 µM (≈ 12.5 µg/mL)
MIC [8]: 25.4 µM (≈ 25 µg/mL)
MIC [9]: 25.4 µM (≈ 25 µg/mL)
SMILES: CSCC[C@H](NC(=O)CNC(=O)[C@H](C)NC(=O)[C@H](C)N)C(=O)NCC(=O)N[C@@H](Cc1ccccc1)C(=O)N[C@@H](Cc1ccccc1)C(=O)NCC(=O)N[C@@H](C)C(=O)N[C@@H](CCCN=C(N)N)C(N)=O [AAGMGFFGAR]
MIC [6]: 25.4 µM (≈ 25 µg/mL)

MIC [10]: ≥ 1500 µM
MIC (Candida krusei ATCC 6258): ≥ 3190 µM
MIC [12]: 1160 µM (≈ 955 µg/mL)
MIC [13]: ≥ 1500 µM
MIC [14]: ≥ 570 µM
MIC [15]: 940 µM (≈ 774 µg/mL)
MIC [16]: ≥ 800 µM
SMILES: N[C@@H](CC(=O)O)C(=O)N[C@@H](CC(=O)O)C(=O)N[C@@H](CC(=O)O)C(=O)N[C@@H](CC(=O)O)C(=O)N[C@@H](CC(=O)O)C(=O)N[C@@H](CC(=O)O)C(=O)N[C@@H](CC(=O)O)C(=O)O [DDDDDDD]
MIC [11]: ≥ 80 µM

MIC [17]: 3.46 µM (≈ 8.97 µg/mL)
MIC [18]: 1.73 µM (≈ 4.48 µg/mL)
MIC [19]: ≥ 35 µM
MIC (Streptococcus pyogenes): ≥ 35 µM
MIC (Escherichia coli NDM): 3.46 µM (≈ 8.97 µg/mL)
MIC [20]: 4.24 µM (≈ 11 µg/mL)
SMILES: CC[C@H](C)[C@H](NC(=O)[C@@H](NC(=O)[C@@H]1CCCN1C(=O)[C@H](Cc1ccccc1)NC(=O)[C@@H](N)Cc1ccccc1)[C@@H](C)CC)C(=O)N[C@@H](C)C(=O)N[C@@H](CCCN=C(N)N)C(=O)N[C@@H](CC(C)C)C(=O)N[C@@H](C)C(=O)N[C@@H](C)C(=O)N[C@@H](CCCCN)C(=O)N[C@H](C(=O)N[C@H](C(=O)N1CCC[C@H]1C(=O)N[C@@H](CO)C(=O)N[C@@H](CC(C)C)C(=O)N[C@H](C(=O)N[C@@H](CS)C(=O)N[C@@H](C)C(=O)N[C@H](C(=O)N[C@H](C(=O)N[C@@H](CCCCN)C(=O)N[C@@H](CCCCN)C(=O)N[C@@H](CS)C(=O)O)[C@@H](C)O)C(C)C)C(C)C)[C@@H](C)CC)C(C)C [FFPIIARLAAKVIPSLVCAVTKKC]

MIC [21]: 20.9 µM (≈ 30 µg/mL)
MIC (Staphylococcus aureus MR): 20.9 µM (≈ 30 µg/mL)
MIC [22]: 6.97 µM (≈ 9.99 µg/mL)
MIC [23]: 20.9 µM (≈ 30 µg/mL)
SMILES: CC[C@H](C)[C@H](NC(=O)[C@H](CC(C)C)NC(=O)[C@@H]1CCCN1C(=O)[C@H](CC(C)C)NC(=O)[C@@H](N)Cc1ccccc1)C(=O)NCC(=O)N[C@@H](CCCCN)C(=O)N[C@@H](CC(C)C)C(=O)N[C@@H](CC(C)C)C(=O)N[C@@H](CO)C(=O)NCC(=O)N[C@@H](CC(C)C)C(=O)N[C@@H](Cc1ccc(O)cc1)C(N)=O [FLPLIGKLLSGLY]

MIC [24]: ≥ 128 µM
MIC (Escherichia coli W3110): 8 µM (≈ 18.4 µg/mL)
SMILES: CC[C@H](C)[C@H](N)C(=O)N[C@@H](Cc1c[nH]c2ccccc12)C(=O)N[C@@H](Cc1c[nH]c2ccccc12)C(=O)N[C@@H](C)C(=O)N[C@@H](CCCCN)C(=O)N[C@@H](Cc1c[nH]c2ccccc12)C(=O)NCC(=O)N[C@@H](CC(C)C)C(=O)N[C@@H](CCCCN)C(=O)N[C@@H](CC(C)C)C(=O)N[C@@H](CC(C)C)C(=O)N[C@@H](CC(=O)O)C(=O)N[C@@H](Cc1ccc(O)cc1)C(=O)N[C@@H](CCCN=C(N)N)C(=O)N[C@@H](CCCN=C(N)N)C(=O)N[C@H](C(=O)N[C@@H](Cc1c[nH]c2ccccc12)C(=O)O)[C@@H](C)CC [IWWAKWGLKLLDYRRIW]

MIC [2]: > 9.6 µM
MIC [17]: > 9.6 µM
MIC [25]: > 9.6 µM
MIC [26]: 9.6 µM (≈ 23.3 µg/mL)
MIC [27]: 9.6 µM (≈ 23.3 µg/mL)
MIC [28]: 9.6 µM (≈ 23.3 µg/mL)
MIC [29]: 9.6 µM (≈ 23.3 µg/mL)
MIC [30]: > 9.6 µM
MIC [31]: 9.6 µM (≈ 23.3 µg/mL)
MIC [32]: 9.6 µM (≈ 23.3 µg/mL)
MIC [33]: 9.6 µM (≈ 23.3 µg/mL)
MIC [34]: > 9.6 µM
SMILES: CC[C@H](C)[C@H](NC(=O)[C@@H](N)CC(C)C)C(=O)NCC(=O)N[C@@H](CC(C)C)C(=O)N[C@H](C(=O)N[C@@H](CO)C(=O)N[C@@H](CCCCN)C(=O)NCC(=O)N[C@H](C(=O)N[C@@H](CO)C(=O)N[C@H](C(=O)N[C@@H](CC(C)C)C(=O)N[C@H](C(=O)N[C@@H](CCCCN)C(=O)N[C@H](C(=O)N[C@H](C(=O)N[C@@H](CO)C(=O)N[C@@H](CCCCN)C(=O)N[C@@H](CCCCN)C(=O)N[C@H](C(=O)N[C@@H](CC(C)C)C(=O)N[C@@H](CCCCN)C(=O)N[C@@H](CCC(N)=O)C(N)=O)C(C)C)C(C)C)[C@@H](C)O)C(C)C)C(C)C)[C@@H](C)O)C(C)C [LIGLVSKGTSVLVKTVSKKVLKQ]

MIC [35]: ≥ 50 µM
MIC [17]: > 50 µM
MIC [18]: 3.12 µM (≈ 8.72 µg/mL)
MIC [36]: 25 µM (≈ 69.9 µg/mL)
MIC (Listeria monocytogenes): ≥ 50 µM
MIC [37]: > 50 µM
MIC [38]: ≥ 50 µM
MIC [12]: > 50 µM
MIC [39]: ≥ 50 µM
MIC [40]: 12.5 µM (≈ 34.9 µg/mL)
SMILES: CC(C)C[C@H](NC(=O)[C@@H](NC(=O)[C@@H]1CCCN1C(=O)[C@H](C)NC(=O)[C@H](CCCCN)NC(=O)[C@H](Cc1c[nH]c2ccccc12)NC(=O)[C@H](CCC(N)=O)NC(=O)[C@@H]1CCCN1C(=O)[C@H](Cc1ccccc1)NC(=O)[C@H](Cc1ccc(O)cc1)NC(=O)[C@H](CCCCN)NC(=O)[C@H](CCCN=C(N)N)NC(=O)[C@H](C)NC(=O)[C@@H]1CCCN1C(=O)[C@H](CC(N)=O)NC(=O)[C@H](CC(C)C)NC(=O)[C@H](CC(N)=O)NC(=O)[C@H](Cc1cnc[nH]1)NC(=O)[C@H](CCCCN)NC(=O)[C@H](CCCCN)NC(=O)[C@H](CC(C)C)NC(=O)[C@H](Cc1ccccc1)NC(=O)[C@@H]1CCCN1)[C@@H](C)O)C(=O)O [PFLKKHNLNPARKYFPQWKAPTL]
